# Assay results published in patent US12286435B2, “Compound having benzo seven-membered ring structure, preparation method therefor, and use thereof” (BIONNA (BEIJING) MEDICAL TECHNOLOGY CO., LTD., priority 2019, dated 2025).
# “And” between values parts separate entries of the source, which are not always exact repeats. Equal values may be shown once.
# Experiments:
# [1] = system: multiple myeloma MM.1S cell line; assay: Cell viability (CCK-8), multiple myeloma MM.1S; assay type: cell-based; settings: MM.1S cells, 4 days, CCK-8, 50% inhibition of cell growth
# Experimental: 3. Determination of cell viability of the compound
# The sample to be tested was dissolved with 100% dimethyl sulfoxide to prepare a 20 mM stock solution of the compound, which was diluted with 100% dimethyl sulfoxide to the highest compound concentration required for the experiment (2.5 mM).
# First, 145 uL of a complete cell culture medium was added to wells B1-G1 of a 96-well flat-bottomed tansparent cell culture plate, and 100 uL of the complete medium was added to wells B2-G12, respectively. Then, 5 uL of the 2.5 mM solution of the compound was added to wells B1-D1 and E1-G1 respectively, and then diluted gradiently by 3-folds to B12-D12 and E12-G12 in sequence. Finally, 50 uL of the solution of the cells to be tested was added to each well, with about 3000-5000 cells per well, and a total volume of 150 uL per well.
# In the experiment, in addition to the tested compound, two other control groups were set up: 1) a control group adding the cells and the complete medium, but without adding the compound; 2) a control group adding the complete medium only, without adding the cells and the compound. The 96-well plate was placed in a 37° C. cell culture incubator containing 5% carbon dioxide for 4 days, added with 15 uL of a CCK-8 reagent per well, and then incubated at 37° C. for 2-4 hours. The 96-well plate was read on a TECAN microplate reader, and the absorbance value at 450 nm wavelength was taken.
# The effect of different concentrations of the compound on cell viability was calculated by the following equation: [absorption value of the experimental group−absorption value of pure cell culture medium without the cells or the compound]/[absorption value of the control group with the tumor cells but no testing compound−absorption value of pure cell culture medium without the cell or the compound]×100%.
# The above data were precessed by software, and the IC50 value was the concentration of the compound corresponding to the 50% inhibition rate of cell growth.
# Based on the above test method of the compound on cell viability, a variety of […] cancer cell lines were tested, using multiple myeloma MM.1S, breast cancer MDA-MB-231 and leukemia MV4-11 cell lines as exemples. Using this test method, the IC50 values of partial compounds in the examples of the present invention measured in multiple myeloma MM.1S, breast cancer MDA-MB-231 cell lines and leukemia MV4-11 cell lines were shown in Table 2.
# BRD4 BD1 protein = BRD4 BD1 protein (Homo sapiens (Human), UniProt O60885); assay: Fluorescence polarization binding affinity (Ki) with BRD4 BD1 protein; settings: fluorescence polarization; Ki calculated from IC50
# BRD4 BD2 protein = BRD4 BD2 protein (Homo sapiens (Human), UniProt O60885); assay: Fluorescence polarization binding affinity (Ki) with BRD4 BD2 protein; settings: fluorescence polarization; Ki calculated from IC50
"IC50 ([1]; Homo sapiens, MM1.S, 96 h) [nM]",Ki (BRD4 BD1 protein),Ki (BRD4 BD2 protein),IC50 [1] [nM],SMILES
13.4,81.4 nM,11.6 nM,,"Cc1nnn2c1-c1ccc(-c3cnn(C)c3)cc1C(Nc1cccc3cccnc13)CC2 (stereo not shown) [LB91, 1-methyl-9-(1-methyl-1H-pyrazol-4-yl)-N-(quinolin-8-yl)-6,7-dihydro-5H-benzo[c][1,2,3]triazolo[1,5-a]azepin-7-amine]"
165,134 nM,8.4 nM and 18.8 nM,,"Cc1nnn2c1-c1ccc(-c3cnn(C)c3)cc1C(Nc1cccc(C#N)c1)CC2 (stereo not shown) [LC07, 3-((1-methyl-9-(1-methyl-1H-pyrazol-4-yl)-6,7-dihydro-5H-benzo[c][1,2,3]triazolo[1,5-a]azepin-7-yl)amino)benzonitrile]"
71.7,99.9 nM,6 nM,,"Cc1nnn2c1-c1ccc(-c3cnn(C)c3)cc1C(Nc1cccc(OCCO)c1)CC2 (stereo not shown) [LB77, 2-(3-((1-methyl-9-(1-methyl-1H-pyrazol-4-yl)-6,7-dihydro-5H-benzo[c][1,2,3]triazolo[1,5-a]azepin-7-yl)amino)phenoxy)ethanol]"
31.3,62.9 nM,9 nM,,"Cc1nnn2c1-c1ccc(-c3cnn(C)c3)cc1C(N(C)c1ccc(Cl)cc1)CC2 (stereo not shown) [RB66, N-(4-chlorophenyl)-N,1-dimethyl-9-(1-methyl-1H-pyrazol-4-yl)-6,7-dihydro-5H-benzo[c][1,2,3]triazolo[1,5-a]azepin-7-amine]"
118,78.3 nM,9.61 nM,,"Cc1nnn2c1-c1ccc(-c3cnn(C)c3)cc1C(Nc1ccc(O)cc1)CC2 (stereo not shown) [LB143, 4-((1-methyl-9-(1-methyl-1H-pyrazol-4-yl)-6,7-dihydro-5H-benzo[c][1,2,3]triazolo[1,5-a]azepin-7-yl)amino)phenol]"
13.6,51.2 nM,19.8 nM,,"Cc1nnn2c1-c1ccc(-c3cn[nH]c3)cc1C(Nc1ccc(Cl)cc1)CC2 (stereo not shown) [RB07, N-(4-chlorophenyl)-1-methyl-9-(1H-pyrazol-4-yl)-6,7-dihydro-5H-benzo[c][1,2,3]triazolo[1,5-a]azepin-7-amine]"
22.8,26.1 nM,7.06 nM,20.8,"Cc1nnn2c1-c1ccc(-c3cnn(C)c3)cc1C(Nc1cccc(O)c1)CC2 (stereo not shown) [LB171, 3-((1-methyl-9-(1-methyl-1H-pyrazol-4-yl)-6,7-dihydro-5H-benzo[c][1,2,3]triazolo[1,5-a]azepin-7-yl)amino)phenol]"
602,235 nM,43.7 nM,,"Cc1nnn2c1-c1ccc(-c3cnn(C)c3)cc1C(Nc1ccc(C(N)=O)cc1)CC2 (stereo not shown) [LB32, 4-((1-methyl-9-(1-methyl-1H-pyrazol-4-yl)-6,7-dihydro-5H-benzo[c][1,2,3]triazolo[1,5-a]azepin-7-yl)amino)benzamide]"
27.9,92.6 nM,20.9 nM,,"Cc1nnn2c1-c1ccc(-c3cnn(C)c3)cc1C(Nc1cccc(CN(C)C)c1)CC2 (stereo not shown) [LC31, N-(3-((dimethylamino)methyl)phenyl)-1-methyl-9-(1-methyl-1H-pyrazol-4-yl)-6,7-dihydro-5H-benzo[c][1,2,3]triazolo[1,5-a]azepin-7-amine]"
676,33.6 nM,24.7 nM,,"Cc1nnn2c1-c1ccc(-c3ccnc4[nH]ccc34)cc1C(Nc1ccc(Cl)cc1)CC2 (stereo not shown) [RB31, N-(4-chlorophenyl)-1-methyl-9-(1H-pyrrolo[2,3-b]pyridin-4-yl)-6,7-dihydro-5H-benzo[c][1,2,3]triazolo[1,5-a]azepin-7-amine]"
26.2,75.5 nM,16.7 nM,,"Cc1nnn2c1-c1ccc(-c3cnn(C)c3)cc1C(Nc1cccc(N(C)C)c1)CC2 (stereo not shown) [LB152, N^1,N^1-dimethyl-N^3-(1-methyl-9-(1-methyl-1H-pyrazol-4-yl)-6,7-dihydro-5H-benzo[c][1,2,3]triazolo[1,5-a]azepin-7-yl)benzene-1,3-diamine]"
,69 nM,11.4 nM,114,CNC(=O)Cc1ccc(NC2CCn3nnc(C)c3-c3ccc(-c4cnn(C)c4)cc32)cc1 (stereo not shown) [LB142]
230,172 nM,92.1 nM,,"COc1ccc2c(c1)C(Nc1ccc(F)cc1)CCc1onc(C)c1-2 (stereo not shown) [BB189, N-(4-fluorophenyl)-8-methoxy-1-methyl-5,6-dihydro-4H-benzo[6,7]cyclohepta[1,2-d]isoxazol-6-amine]"
989,173 nM,48.1 nM,,"Cn1cc(-c2ccc3c(c2)C(Nc2ccc(Cl)cc2)CCn2nnc(C4CC4)c2-3)cn1 (stereo not shown) [BE44, N-(4-chlorophenyl)-1-cyclopropyl-9-(1-methyl-1H-pyrazol-4-yl)-6,7-dihydro-5H-benzo[c][1,2,3]triazolo[1,5-a]azepin-7-amine]"
11.2,38 nM,7.4 nM,,"Cc1nnn2c1-c1ccc(-c3cnn(C)c3)cc1C(Nc1ccc3cc[nH]c3c1)CC2 (stereo not shown) [LB113, N-(1H-indo1-6-yl)-1-methyl-9-(1-methyl-1H-pyrazol-4-yl)-6,7-dihydro-5H-benzo[c][1,2,3]triazolo[1,5-a]azepin-7-amine]"
120,124 nM,48.3 nM,,"Cc1nnn2c1-c1ccc(-c3cnn(C)c3)cc1C(Nc1ccc(CCN(C)C)cc1)CC2 (stereo not shown) [LB139, N-(4-(2-(dimethylamino)ethyl)phenyl)-1-methyl-9-(1-methyl-1H-pyrazol-4-yl)-6,7-dihydro-5H-benzo[c][1,2,3]triazolo[1,5-a]azepin-7-amine]"
36.5,614 nM,23.9 nM,,"Cc1nnn2c1-c1ccc(-c3cnn(C)c3)cc1C(Nc1ccc(CO)cc1)CC2 (stereo not shown) [LB35, (4-((1-methyl-9-(1-methyl-1H-pyrazol-4-yl)-6,7-dihydro-5H-benzo[c][1,2,3]triazolo[1,5-a]azepin-7-yl)amino)phenyl)methanol]"
1.2,45.3 nM,8.8 nM,,"Cc1nnn2c1-c1ccc(-c3cnn(C)c3)cc1C(Nc1cccc3[nH]ccc13)CC2 (stereo not shown) [LB114, N-(1H-indo1-4-yl)-1-methyl-9-(1-methyl-1H-pyrazol-4-yl)-6,7-dihydro-5H-benzo[c][1,2,3]triazolo[1,5-a]azepin-7-amine]"
,34.5 nM,8.19 nM,16,"CNC(=O)Cc1ccc(NC2CCn3nnc(C)c3-c3ccc(-c4cnn(C)c4)cc32)cc1 (stereo not shown) [LB42, N-methyl-2-(4-((1-methyl-9-(1-methyl-1H-pyrazol-4-yl)-6,7-dihydro-5H-benzo[c][1,2,3]triazolo[1,5-a]azepin-7-yl)amino)phenyl)acetamide]"

SMILES,"IC50 ([1]; Homo sapiens, MM1.S, 96 h) [nM]",Ki (BRD4 BD1 protein),Ki (BRD4 BD2 protein),IC50 [1] [nM]
"COc1cccc(NC2CCn3nnc(C)c3-c3ccc(C4=CCN(C(C)C)CC4)cc32)c1 (stereo not shown) [BH37, 9-(1-isopropyl-1,2,3,6-tetrahydropyridin-4-yl)-N-(3-methoxyphenyl)-1-methyl-6,7-dihydro-5H-benzo[c][1,2,3]triazolo[1,5-a]azepin-7-amine 2,2,2-trifluoroacetate]",352,1880 nM and 1560 nM,61.9 nM and 28.3 nM,
"CC(=O)N1CC=C(c2ccc3c(c2)C(Nc2ccc(Cl)cc2)CCn2nnc(C)c2-3)CC1 (stereo not shown) [LD19, 1-(4-(7-((4-chlorophenyl)amino)-1-methyl-6,7-dihydro-5H-benzo[c][1,2,3]triazolo[1,5-a]azepin-9-yl)-3,6-dihydropyridin-1(2H)-yl)ethan-1-one]",< 1,38.7 nM,9.67 nM,
"Cc1nnn2c1-c1ccc(-c3cnn(C)c3)cc1C(Nc1ccccc1CN(C)C)CC2 (stereo not shown) [LC29, N-(2-((dimethylamino)methyl)phenyl)-1-methyl-9-(1-methyl-1H-pyrazol-4-yl)-6,7-dihydro-5H-benzo[c][1,2,3]triazolo[1,5-a]azepin-7-amine]",12.2,19.4 nM,7.6 nM,
"Cc1nnn2c1-c1ccc(-c3cnn(C)c3)cc1C(Nc1cccc(CC#N)c1)CC2 (stereo not shown) [LC20, 2-(3-((1-methyl-9-(1-methyl-1H-pyrazol-4-yl)-6,7-dihydro-5H-benzo[c][1,2,3]triazolo[1,5-a]azepin-7-yl)amino)phenyl)acetonitrile]",25.3,59.6 nM,15 nM,
"Cc1nnn2c1-c1ccc(C3=CCNCC3)cc1C(Nc1cccc(OCCO)c1)CC2 (stereo not shown) [LC56, 2-(3-((1-methyl-9-(1,2,3,6-tetrahydropyridin-4-yl)-6,7-dihydro-5H-benzo[c][1,2,3]triazolo[1,5-a]azepin-7-yl)amino)phenoxy)ethan-1-ol 2,2,2-trifluoroacetate]",2890,1520 nM,70.3 nM,
